Results taken from US12473305B2, “Pyrazole boronic acid compound, pharmaceutical composition containing same, and uses thereof” (BEIJING SONGRUN PHARMACEUTICAL TECHNOLOGY CO., LTD., priority 2020, dated 2025).

Tests used:
[1] = tested on: non-small cell lung cancer cell line A549; assay: CellTiter-Glo tumor cell proliferation, A549; assay type: cell-based, human; settings: Homo sapiens, A549; CellTiter-Glo, 72 h
How it was run: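 Cells seeded at 2×10^4/mL, grown 24 h at 37° C, 5% CO2, then treated in triplicate with medium-diluted compound for 72 h. CellTiter-Glo luminescence read after 20 min at 37° C; inhibition versus untreated control RLU, IC50 calculated.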

[2] = Maximum tolerated dose in mice; assay type: in vivo; settings: for body weight (M ± S.E.): in g (unit assumed)
Protocol: Healthy non-tumor bearing female NOD/SCID mice (purchased from Sipeifu Biotechnology Co., Ltd.) were selected for the Maximum Tolerated Dose (MTD) test. Compound 39 was administered to NOD/SCID mice directly through a single tail vein injection, and the vehicle (0.3 mL DMSO, 0.27 mL Tween-80, 2.43 mL normal saline) was used as the control group. According to the dose of compound 39, the administration group was divided into three groups: low-dose group (10 mg/kg), medium-dose group (20 mg/kg), and high-dose group (30 mg/kg), with seven mice in each group.

[3] = tested on: liver cancer cell line HepG2; assay: CellTiter-Glo tumor cell proliferation, HepG2; assay type: cell-based, human; settings: Homo sapiens, HepG2, 72 h
Protocol: The effect of compounds on tumor cell proliferation was detected by CellTiter-Glo method. Human melanoma cell line A375, non-small cell lung cancer cell line A549, human lung adenocarcinoma cell line H1299, colorectal cancer cell line HCT116, liver cancer cell line HepG2 and gastric cancer cell line MGC80-3 were cultured in vitro. The cells were collected after growing to the logarithmic growth phase, centrifuged at 1000 rpm for 5 min, and suspended in an appropriate amount of medium after discarding the supernatant, and the cell concentration was adjusted to 2×10^4/mL. The cell suspension was inoculated onto the 384-well cell culture plate, with 50 μL per well. After being cultured in a cell incubator (37° C., 5% CO2) for 24 h, 5 μL of drug diluted by the cell culture medium was added into each well for the treatment group. Each drug was provided in triplicate. After 72 h incubation in the incubator, 20 μL of CellTiter-Glo was added into each well, and the relative luminescence unit (RLU) was measured with Multimode Microplate Reader Varioskan Flash (Thermo Scientific, USA) after placed at 37° C. for 20 min, and compared with the RLU of the control group. SigmaPlot 10.0 software was used to calculate the inhibition rate and IC50 value.

Structure (SMILES): CC(C)C[C@H](NC(=O)Cn1nc(-c2cccc(OCCN3CCOCC3)c2)cc1-c1ccccc1)B(O)O.Cl [Compound 30, (R)-(3-methyl-1-(2-(3-(3-(2-morpholinoethoxy)phenyl)-5-phenyl-1H-pyrazol-1-yl)-acetamido)butyl)boronic acid hydrochloride]
- IC50 [1]: 3.05 µM

Structure (SMILES): CC(C)C[C@H](NC(=O)Cn1nc(-c2cccc(OCCN3CCN(c4ccccc4)CC3)c2)cc1-c1ccccc1)B(O)O.Cl [Compound 39, (R)-(3-methyl-1-(2-(5-phenyl-3-(3-(2-(4-phenylpiperazin-1-yl)ethoxy)phenyl)-1H-pyrazol-1-yl)acetamido)butyl)boronic acid hydrochloride]
- body weight (M ± S.E.) ([2]; High-dose 30 mg/kg single tail vein injection, Day 0 (day before administration)): 24.2 ± 0.5
- body weight (M ± S.E.) ([2]; High-dose 30 mg/kg single tail vein injection, Day 1): 24.0 ± 0.5
- body weight (M ± S.E.) ([2]; High-dose 30 mg/kg single tail vein injection, Day 2): 22.4 ± 0.6
- body weight (M ± S.E.) ([2]; High-dose 30 mg/kg single tail vein injection, Day 3): 22.5 ± 0.6
- body weight (M ± S.E.) ([2]; High-dose 30 mg/kg single tail vein injection, Day 4): 22.7 ± 0.7
- body weight (M ± S.E.) ([2]; High-dose 30 mg/kg single tail vein injection, Day 5): 22.9 ± 0.6
- body weight (M ± S.E.) ([2]; High-dose 30 mg/kg single tail vein injection, Day 6): 22.5 ± 0.6
- body weight (M ± S.E.) ([2]; High-dose 30 mg/kg single tail vein injection, Day 7): 23.1 ± 0.4
- body weight (M ± S.E.) ([2]; Low-dose 10 mg/kg single tail vein injection, Day 0 (day before administration)): 24.2 ± 0.8
- body weight (M ± S.E.) ([2]; Low-dose 10 mg/kg single tail vein injection, Day 1): 24.5 ± 0.8
- body weight (M ± S.E.) ([2]; Low-dose 10 mg/kg single tail vein injection, Day 2): 23.3 ± 1.1
- body weight (M ± S.E.) ([2]; Low-dose 10 mg/kg single tail vein injection, Day 3): 23.4 ± 1.0
- body weight (M ± S.E.) ([2]; Low-dose 10 mg/kg single tail vein injection, Day 4): 23.7 ± 1.1
- body weight (M ± S.E.) ([2]; Low-dose 10 mg/kg single tail vein injection, Day 5): 24.1 ± 1.0
- body weight (M ± S.E.) ([2]; Low-dose 10 mg/kg single tail vein injection, Day 6): 24.4 ± 0.8
- body weight (M ± S.E.) ([2]; Low-dose 10 mg/kg single tail vein injection, Day 7): 24.7 ± 0.7
- body weight (M ± S.E.) ([2]; Medium-dose 20 mg/kg single tail vein injection, Day 0 (day before administration)): 24.7 ± 0.2
- body weight (M ± S.E.) ([2]; Medium-dose 20 mg/kg single tail vein injection, Day 1): 24.1 ± 0.5
- body weight (M ± S.E.) ([2]; Medium-dose 20 mg/kg single tail vein injection, Day 2): 22.8 ± 0.4
- body weight (M ± S.E.) ([2]; Medium-dose 20 mg/kg single tail vein injection, Day 3): 22.7 ± 0.4
- body weight (M ± S.E.) ([2]; Medium-dose 20 mg/kg single tail vein injection, Day 4): 22.8 ± 0.5
- body weight (M ± S.E.) ([2]; Medium-dose 20 mg/kg single tail vein injection, Day 5): 23.3 ± 0.6
- body weight (M ± S.E.) ([2]; Medium-dose 20 mg/kg single tail vein injection, Day 6): 23.7 ± 0.7
- body weight (M ± S.E.) ([2]; Medium-dose 20 mg/kg single tail vein injection, Day 7): 24.0 ± 0.7
- average body weight change of mice ([2]; doses of 30 mg/kg or less, single tail vein injection): not more than 5%
- MTD at 7 days ([2]; female, NOD/SCID, mouse, in vivo, single tail vein injection, 7 days observation, read-out: dose safe to be administered (maximum tolerated dose test)): ≤ 30 mg/kg
- IC50 [3]: 0.054 µM
